# Laboratory results published in patent US10363229B2, “Methods and compositions for the treatment of cancer” (priority 2009, dated 2019).
# Tests used:
# [1] = tested on: p27 in melanoma cells; test: Immunofluorescence of p27; assay type: cell-based, mouse; details: cells treated with methyl sulfone
# Procedure: Cells were grown on 12 mm coverslips until 60 to 70% confluent. 2% methyl sulfone was added to half the coverslips and normal medium to other half. After 24, 48, and 96 hours, coverslips were placed in porcelain holders and incubated in 37° C. PBS for 30 seconds followed by incubation in 37° C. 4% paraformaldehyde for 10 minutes. Cells were washed in PBS for 5 minutes followed by incubation in 0.2% Triton X-100/PBS for 5 minutes at room temperature. Chicken serum ([…] in 1 ml PBS) was added to cells for 30 minutes. Cells were washed 3 times in 0.2% Triton X-100/PBS, 3 minutes each. Rabbit anti-p27 polyclonal antibody, (Santa Cruz Biotech, Calif.) was diluted 1/250 in 1% BSA/PBS and added to coverslips for 1.5 hours. Cells were washed 5 times in 0.2% Triton X-100/PBS, 3 minutes each. Secondary antibody, Alexa Fluor 488 chicken anti-rabbit antibody, was diluted 1/1000 in 1% BSA/PBS and added to coverslips for 30 minutes in the dark. Cells were washed five times in 0.2% Triton X-100/PBS, three minutes each. Cells were washed twice in PBS for two minutes each and placed in DAPI, diluted 1/1000 in PBS, for 5 minutes. Cells were washed in PBS for one minute. SlowFade was added to slides, coverslips were placed face down and sealed with nail polish. […]
# [2] = tested on: actin filaments in melanoma cells; test: Immunofluorescence of actin filaments; assay type: cell-based, mouse; details: 2% methyl sulfone, 72 hours
# Procedure: Cells were plated onto 10-well slides ( ) that were pre-treated with sulfuric acid. After 24 hours, medium was removed and 2% methyl sulfone in medium was added to half the slides; control cells received medium alone. At 72 and 144 hours, cells were washed in 37° C. PBS, pH 7.4, and fixed in 3.7% formaldehyde in PBS for 10 minutes. PBS was used to wash cells three times followed by a wash in 0.1% Triton X-100/PBS for 5 minutes. Cells were again washed three times in PBS, then in 1% BSA/PBS for 20 minutes. Cells were incubated with Rhodamine-labeled Phalloidin (Molecular Probes, Eugene, Oreg.; diluted 1/40 in 1% BSA/PBS) for 20 minutes. After washing three times in PBS, SlowFade was added to each well. Glass coverslips were placed over each slide and sealed with nail polish. Images were visualized using 568-nm excitation on a Perkin Elmer Ultraview RS5 spinning-disk confocal scanning system mounted on a Nikon TE2000 inverted microscope with a 100×1.4 NA Plan Apo oil immersion objective. (William A. Mohler, Ph.D., Director, Spinning Disk Microscope Facility, University of Connecticut Health Center).
# [3] = tested on: CEM cells, leukemic T-cell lymphocytes; test: Apoptosis of leukemic lymphocytes, FITC-annexinV/propidium iodide microscopy; assay type: cell-based, human; details: for apoptotic leukemic lymphocytes: 20 hours
# Procedure: Cloudman S-91 mouse melanoma cells (sub-clone M-3, CCL 53.1; American Type Culture Collection, Rockville, Md.) were grown in RMPI medium supplemented with 10% fetal bovine serum (Invitrogen, Inc) and 5% penicillin-streptomycin (Invitrogen, Inc). Mouse breast cancer cells (66Cl-1; American Type Culture Collection, Rockville, Md.) that are estrogen-receptor negative were grown in DMEM medium supplemented with 10% fetal bovine serum (Invitrogen, Inc) and 5% penicillin/streptomycin (Invitrogen, Inc). Human T-cell leukemic lymphocytes (CEM; American Type Culture Collection, Rockville, Md.) were grown in MEM medium supplemented with 7% fetal calf serum. Cultures were passaged twice a week.
# CEM cells, leukemic T-cell lymphocytes obtained from a child with acute lymphocytic leukemia, were maintained in Petri dishes in MEM (minimal essential medium) with 7% fetal calf serum in a 5% CO2 incubator at 37° C. For experiments, methyl sulfone was added to the medium at concentrations from 0-6.0%. In control cells, no methyl sulfone was added. Cells (2×10^6 per ml) were incubated for 20 hrs in the presence or absence of methyl sulfone, and then assayed for apoptosis using FITC-annexinV/propidium iodide microscopy. Methyl sulfone was also compared to the anti-microtubule drug, vinblastine. Vinblastine (VNB) and its derivative, vincristine, are standard treatments for acute lymphocytic leukemia, as well as other cancers. We used the concentration of VNB that is found in the blood of subjects being treated with this drug (10^−7 M) (6,7).
# [4] = tested on: CEM leukemic lymphocytes; test: Apoptosis of leukemic lymphocytes by Flow Cytometry; assay type: cell-based, human
# Procedure: CEM leukemic lymphocytes were also incubated in the presence or absence of 10% methyl sulfone.
# (§1) After 20 hours, cells were incubated with fluorescent antibodies to identify T-cells, B-cells and neutrophils, and then processed by Flow Cytometry (FIG. 15).
# [5] = tested on: normal lymphocytes (T-cells) from a healthy volunteer; test: Apoptosis of normal T-cell lymphocytes by Flow Cytometry; assay type: cell-based, human
# Text: Normal T-cell lymphocytes were obtained from a blood sample of a healthy volunteer. Blood samples were obtained with IRB approval and with the volunteer signing an Informed Consent Form. White blood cells were separated from red blood cells using a Ficoll gradient. Flow cytometry with antibodies against CD3 and CD4 was used to identify T-cell lymphocytes (Flow Cytometry Facility, University of Connecticut Health Center, Farmington, Conn.).
# Blood was drawn from healthy volunteers and white blood cells (e.g., lymphocytes, neutrophils) were enriched using Ficoll-Plaque. Cells were incubated in Petri dishes containing MEM with 7% fetal calf serum in a CO2 (5%) incubator at 37° C.; Methyl sulfone was present at concentrations of 0, 3, 6, or 10%. After 20 hours, cells were incubated with antibodies specific to T-lymphocytes (CD3 and CD4 T-cells), B-lymphocytes (B-cells) and neutrophils, and the percent of apoptotic cells was determined by Flow Cytometry. This is a technique that identifies specific cell types (e.g., CD3 T-cells, CD4 T-cells, B-cells, neutrophils) within a mixed population of blood cells, and then determines whether the cells are alive or apoptotic.
# as §1
# [6] = 20° C.; cited from earlier work
# [7] = summary in the description, concentration not given
substance,measurement,setting,value
methyl sulfone,localization of p27,[1],localized in the nuclei
same,distribution of actin filaments,[2],clearly visible at the cell surface in small protrusions that contacted neighboring cells
same,apoptotic leukemic lymphocytes,[3]; 4% methyl sulfone,74%
same,apoptotic leukemic lymphocytes,[3]; 6% methyl sulfone,88%
same,effectiveness against leukemic lymphocytes compared with vinblastine,[3]; comparison with 10^−7 M vinblastine,more effective than vinblastine
same,CEM leukemic lymphocytes killed,"[4]; 10% methyl sulfone, 20 hours",92%
same,leukemic cells induced into apoptosis,[4]; [7],more than 90%
same,viability of normal lymphocytes (T-cells),"[5]; 10% methyl sulfone, 20 hours",remained viable
same,T-cells from the healthy volunteer induced into apoptosis,[5]; [7],less than 10%
same,approximate water solubility,[6],~150 mg/mL
